Data on one molecule can be found in patent US20080058373A1, “Compositions and Methods for Treating or Preventing Glaucoma or Progression Thereof” (priority 2006, published 2008).

This assay relates to rabbit eye (anterior chamber paracentesis). Nature of the assay: Rabbit paracentesis model of anterior-segment inflammation (overall conclusion). The settings on record: 0.1%, 0.5% and 1% topical formulations. In kind it is in vivo. From the text: Inflammatory processes are multidimensional in origin, and are characterized by complex cellular and molecular events involving numerous components all of which have not been identified. Prostaglandins are among these mediators and play an important role in certain forms of ocular inflammation. Paracentesis of the anterior chamber in the rabbit eye induces inflammatory reaction due to the disruption of the blood-aqueous barrier (“BAB”), which is mediated, at least in part, by prostaglandin E2 [References 1-3 below]. Intraocular or topical administration of PGE2 disrupts the BAB. [Reference 4, below] The treatment schedule adopted in this study was similar to the clinical NSAIDs (Ocufen) treatment schedule used by surgeons for patients before cataract surgery.
Each rabbit was placed in a restraint device and tagged with the alphanumeric code. The formulations were instilled (50 μl) into the conjunctival sac of both eyes 180, 120, 90 and 30 min before the first paracentesis; then 15, 30, 90 min after the first paracentesis. […]
Pupillary diameter, PGE2, protein, PMN, and MPO were expressed as mean±SEM. […] Clinical score was expressed as % of eyes and the statistical analysis was performed using Kruskal-Wallis followed by a Dunn post hoc test. […]

Entries after “also recorded” stand apart in the source; their conditions may differ.

Take `Cc1ccc2c(NCC(O)(CC(C)(C)c3cc(F)cc4c3OCC4)C(F)(F)F)cccc2n1` (stereo not shown): the “Anti-inflammatory activity in the rabbit paracentesis model (preliminary conclusion)” value was “active in this model; also recorded: as effective an anti-inflammatory drug as some of the commonly accepted prior-art steroids or NSAID”.
